Measured values as given in patent publication US10294202B2, “Pyrrolidinones as herbicides” (FMC Corporation, priority 2013, dated 2019).

What was measured:
velvetleaf = assay: Test C pre-/postemergence herbicide test; type: in vivo, Abutilon theophrasti
Excerpt: (§1) Seeds of plant species selected from blackgrass (Alopecurus myosuroides), ryegrass, Italian (Italian ryegrass, Lolium multiflorum), wheat (winter wheat, Triticum aestivum), galium (catchweed bedstraw, Galium aparine), corn (Zea mays), crabgrass, large (large crabgrass, Digitaria sanguinalis), foxtail, giant (giant foxtail, Setaria faberii), johnsongrass (Sorghum halepense), lambsquarters (Chenopodium album), morningglory (Ipomoea coccinea), nutsedge, yellow (yellow nutsedge, Cyperus esculentus), pigweed (Amaranthus retroflexus), ragweed (common ragweed, Ambrosia elatior), soybean (Glycine max), barnyardgrass (Echinochloa crus-galli), oilseed rape (Brassica napus), waterhemp (common waterhemp, Amaranthus rudis), kochia (Kochia scoparia), oat, wild (wild oat, Avena fatua), surinam grass (Brachiaria decumbens), foxtail, green (green foxtail, Setaria viridis), goosegrass (Eleusine indica), bromegrass, downy (downy bromegrass, Bromus tectorum), nightshade (eastern black nightshade, Solanum ptycanthum), cocklebur (common cocklebur, Xanthium strumarium), cupgrass, woolly (woolly cupgrass, Eriochloa villosa), bermudagrass (Cynodon dactylon), sunflower, (common oilseed sunflower, Helianthus annuus), Russian thistle (Salsola kali) and velvetleaf (Abutilon theophrasti) were planted into a blend of loam soil and sand and treated preemergence with test chemicals formulated in a non-phytotoxic solvent mixture which included a surfactant. At the same time, plants selected from these crop and weed species and also barley (winter barley, Hordeum vulgare), […]), chickweed (common chickweed, Stellaria media), deadnettle (henbit deadnettle, Lamium amplexicaule), and canarygrass (littleseed canarygrass, Phalaris minor) were planted in pots containing Redi-Earth® planting medium (Scotts Company, 14111 Scottslawn Road, Marysville, Ohio 43041) comprising spaghnum peat moss, vermiculite, wetting agent and starter nutrients and treated with postemergence applications of test chemicals formulated in the same manner. Plants ranged in height from 2 to 18 cm (1- to 4-leaf stage) for postemergence treatments. Treated plants and controls were maintained in a greenhouse for 13 to 15 days, after which time all species were compared to controls and visually evaluated. Plant response ratings, summarized in Table C, are based on a scale of 0 to 100 where 0 is no effect and 100 is complete control. A dash (-) response means no test result.

waterhemp = assay: Test C pre-/postemergence herbicide test; type: in vivo, Amaranthus rudis
Excerpt: as §1

ryegrass, Italian = assay: Test C pre-/postemergence herbicide test; type: in vivo, Lolium multiflorum
Excerpt: as §1

oilseed rape = assay: Test C pre-/postemergence herbicide test; type: in vivo, Brassica napus
Excerpt: as §1

soybean = assay: Test C pre-/postemergence herbicide test; type: in vivo, Glycine max
Excerpt: as §1

blackgrass = assay: Test C pre-/postemergence herbicide test; type: in vivo, Alopecurus myosuroides
Excerpt: as §1

corn = assay: Test A pre-/postemergence herbicide test; type: in vivo, Zea mays
Procedure, shortened: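 Directed soil spray to seeded pots (preemergence) or spray onto one- to two-leaf seedlings 2–10 cm tall (postemergence); loam/sand substrate throughout. Evaluated visually after about 10 days against untreated plants, 0 = no effect, 100 = complete control.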

crabgrass, large = assay: Test C pre-/postemergence herbicide test; type: in vivo, Digitaria sanguinalis
Excerpt: as §1

[1] = Postemergence, 31 g ai/ha, scale 0 to 100 (0 no effect, 100 complete control)
[2] = Postemergence, 62 g ai/ha, scale 0 (no effect) to 100 (complete control)
[3] = Postemergence, 125 g ai/ha, scale 0 to 100 (0 no effect, 100 complete control)
[4] = Postemergence, 250 g ai/ha, scale 0 to 100 (0 no effect, 100 complete control)
[5] = Preemergence, 31 g ai/ha, scale 0 to 100, 0 is no effect and 100 is complete control
[6] = Preemergence, 62 g ai/ha, scale 0 to 100 (0 no effect, 100 complete control)
[7] = Preemergence, 125 g ai/ha, scale 0 to 100 (0 no effect, 100 complete control)
[8] = Preemergence, 62 g ai/ha, scale 0 to 100
[9] = Postemergence, 125 g ai/ha, 0 to 100 scale, 0 is no effect, 100 is complete control
[10] = Preemergence, 31 g ai/ha, scale 0 to 100 (0 no effect, 100 complete control)
[11] = Preemergence, 16 g ai/ha, scale 0 to 100

O=C1NCC(c2cccc(C(F)(F)F)c2)C1C(=O)Nc1ccc(F)cc1F (racemic) [Compound 207]
Plant response rating, Velvetleaf (velvetleaf; [1]): 0 | Plant response rating, Velvetleaf (velvetleaf; [2]): 0 | Plant response rating, Velvetleaf (velvetleaf; [3]): 0 | Plant response rating, Velvetleaf (velvetleaf; [4]): 0 | Velvetleaf plant response rating (velvetleaf; [5]): 0 | Velvetleaf plant response rating (velvetleaf; [6]): 0 | Plant response rating, Velvetleaf (velvetleaf; [7]): 0 | Plant response rating (scale of 0 to 100), Velvetleaf (velvetleaf; Preemergence, 250 g ai/ha): 0 | Plant response rating, Waterhemp (waterhemp; [1]): 0 | Plant response rating, Waterhemp (waterhemp; [2]): 0 | Plant response rating, Waterhemp (waterhemp; [3]): 0 | Plant response rating, Waterhemp (waterhemp; [4]): 10 | Waterhemp plant response rating (waterhemp; [5]): 0 | Waterhemp plant response rating (waterhemp; [6]): 0 | Plant response rating, Waterhemp (waterhemp; [7]): 85 | Plant response rating (scale of 0 to 100), Waterhemp (waterhemp; Preemergence, 250 g ai/ha): 75 | Plant response rating, Ryegrass, Italian (ryegrass, Italian; [1]): 0 | Plant response rating, Ryegrass, Italian (ryegrass, Italian; [2]): 0 | Plant response rating, Ryegrass, Italian (ryegrass, Italian; [3]): 0 | Plant response rating, Ryegrass, Italian (ryegrass, Italian; [4]): 0 | Ryegrass, Italian plant response rating (ryegrass, Italian; [5]): 0 | Ryegrass, Italian plant response rating (ryegrass, Italian; [6]): 0 | Plant response rating, Ryegrass, Italian (ryegrass, Italian; [7]): 0 | Plant response rating (scale of 0 to 100), Ryegrass, Italian (ryegrass, Italian; Preemergence, 250 g ai/ha): 0 | Plant response rating, Oilseed Rape (oilseed rape; [1]): 0 | Plant response rating, Oilseed Rape (oilseed rape; [2]): 0 | Plant response rating, Oilseed Rape (oilseed rape; [3]): 10 | Plant response rating, Oilseed Rape (oilseed rape; [4]): 30 | Oilseed Rape plant response rating (oilseed rape; [5]): 0 | Oilseed Rape plant response rating (oilseed rape; [6]): 0 | Plant response rating, Oilseed Rape (oilseed rape; [7]): 0 | Plant response rating (scale of 0 to 100), Oilseed Rape (oilseed rape; Preemergence, 250 g ai/ha): 80 | Plant response rating, Soybean (soybean; [1]): 0 | Plant response rating, Soybean (soybean; [2]): 5 | Plant response rating, Soybean (soybean; [3]): 5 | Plant response rating, Soybean (soybean; [4]): 5 | Soybean plant response rating (soybean; [5]): 0 | Soybean plant response rating (soybean; [6]): 0 | Plant response rating, Soybean (soybean; [7]): 0 | Plant response rating (scale of 0 to 100), Soybean (soybean; Preemergence, 250 g ai/ha): 0 | Plant response rating, Blackgrass (blackgrass; [1]): 0 | Plant response rating, Blackgrass (blackgrass; [2]): 0 | Plant response rating, Blackgrass (blackgrass; [3]): 0 | Plant response rating, Blackgrass (blackgrass; [4]): 0 | Blackgrass plant response rating (blackgrass; [5]): 0 | Plant response rating, Blackgrass (blackgrass; [8]): 80 | Plant response rating, Blackgrass (blackgrass; [7]): 85 | Plant response rating (scale of 0 to 100), Blackgrass (blackgrass; Preemergence, 250 g ai/ha): 90 | Plant response rating, Corn (corn; [9]): 50 | Corn plant response rating (0 to 100 scale, 0 is no effect, 100 is complete control) (corn; Postemergence, 500 g ai/ha): 70 | Plant response rating, Crabgrass, Large (crabgrass, large; [1]): 10 | Plant response rating, Crabgrass, Large (crabgrass, large; [2]): 15 | Plant response rating, Crabgrass, Large (crabgrass, large; [3]): 40 | Plant response rating, Crabgrass, Large (crabgrass, large; [4]): 65 | Crabgrass, Large plant response rating (crabgrass, large; [5]): 90 | Crabgrass, Large plant response rating (crabgrass, large; [6]): 90 | Plant response rating, Crabgrass, Large (crabgrass, large; [7]): 95 | Plant response rating (scale of 0 to 100), Crabgrass, Large (crabgrass, large; Preemergence, 250 g ai/ha): 95

O=C1NCC(c2ccc(F)cc2)C1C(=O)Nc1ccccc1F (racemic) [Compound 16]
Plant response rating, Velvetleaf (velvetleaf; [8]): 0 | Plant response rating, Velvetleaf (velvetleaf; [7]): 0 | Plant response rating, Ryegrass, Italian (ryegrass, Italian; [8]): 0 | Plant response rating, Soybean (soybean; [8]): 0 | Plant response rating, Soybean (soybean; [7]): 0 | Blackgrass plant response rating (blackgrass; [10]): 0 | Plant response rating, Blackgrass (blackgrass; [8]): 5 | Plant response rating, Blackgrass (blackgrass; [7]): 10 | Plant response rating, Corn (corn; Postemergence, 125 g ai/ha, 0 to 100 scale, 0 no effect, 100 complete control): 0 | Plant response rating, Corn (corn; Postemergence, 500 g ai/ha, 0 to 100 scale (0 no effect, 100 complete control)): 30 | Corn plant response rating (corn; Preemergence, 125 g ai/ha, visual rating on 0 to 100 scale (0 no effect, 100 complete control)): 0 | Plant response rating, Corn (corn; preemergence, 500 g ai/ha, 0 to 100 scale): 30 | Crabgrass, Large plant response rating (crabgrass, large; [10]): 95 | Plant response rating, Crabgrass, Large (crabgrass, large; [8]): 95 | Plant response rating, Crabgrass, Large (crabgrass, large; [7]): 100 | Plant response rating, Crabgrass, Large (crabgrass, large; Preemergence, 250 g ai/ha, scale 0 to 100 (0 no effect, 100 complete control)): 100

O=C1NCC(c2cccc(C(F)(F)F)c2)C1C(=O)Nc1ccccc1Cl (racemic) [Compound 189]
Velvetleaf plant response rating (velvetleaf; [5]): 0 | Velvetleaf plant response rating (velvetleaf; [6]): 0 | Plant response rating, Velvetleaf (velvetleaf; [7]): 0 | Plant response rating, Velvetleaf (velvetleaf; [11]): 0 | Waterhemp plant response rating (waterhemp; [5]): 0 | Waterhemp plant response rating (waterhemp; [6]): 5 | Plant response rating, Waterhemp (waterhemp; [7]): 0 | Plant response rating, Waterhemp (waterhemp; [11]): 0 | Ryegrass, Italian plant response rating (ryegrass, Italian; [5]): 0 | Ryegrass, Italian plant response rating (ryegrass, Italian; [6]): 30 | Plant response rating, Ryegrass, Italian (ryegrass, Italian; [7]): 45 | Plant response rating, Ryegrass, Italian (ryegrass, Italian; [11]): 0 | Oilseed Rape plant response rating (oilseed rape; [5]): 0 | Oilseed Rape plant response rating (oilseed rape; [6]): 0 | Plant response rating, Oilseed Rape (oilseed rape; [7]): 20 | Plant response rating, Oilseed Rape (oilseed rape; [11]): 0 | Soybean plant response rating (soybean; [5]): 5 | Soybean plant response rating (soybean; [6]): 10 | Plant response rating, Soybean (soybean; [7]): 0 | Plant response rating, Soybean (soybean; [11]): 0 | Blackgrass plant response rating (blackgrass; [5]): 10 | Plant response rating, Blackgrass (blackgrass; [8]): 50 | Plant response rating, Blackgrass (blackgrass; [7]): 55 | Plant response rating, Blackgrass (blackgrass; [11]): 0 | Plant response rating, Corn (corn; 125 g ai/ha, visual rating, 0 to 100 scale, 0 no effect, 100 complete control, approximately 10 days, preemergence): 0 | Plant response rating, Corn (corn; [9]): 0 | Corn plant response rating (0 to 100 scale, 0 is no effect, 100 is complete control) (corn; Postemergence, 500 g ai/ha): 60 | Plant response rating, Corn (corn; preemergence, 500 g ai/ha, 0 to 100 scale, 0 is no effect and 100 is complete control): 0 | Crabgrass, Large plant response rating (crabgrass, large; [5]): 95 | Crabgrass, Large plant response rating (crabgrass, large; [6]): 95 | Plant response rating, Crabgrass, Large (crabgrass, large; [7]): 98 | Plant response rating, Crabgrass, Large (crabgrass, large; [11]): 90
